Molecules are shown by their SMILES.

This series can be described thus: Partition coefficient, log P of the compound. The format is physicochemical. The conditions noted are these: octanol/water.
For `O=C(Nc1ccc(Cl)cc1)Nc1ccc(OC2=NS(=O)(=O)c3ccccc32)cc1`, the log partition coefficient (logP) – broadly, a log measure of how a compound divides between an organic and an aqueous phase – was 3.55.

Consider `O=C(Nc1ccccc1)Nc1ccc2c(c1)C(Nc1ccc(Cl)cc1Cl)=NS2(=O)=O`, for which the logP was 3.57.

For `O=C(Nc1ccc(Br)cc1)Nc1ccc(OC2=NS(=O)(=O)c3ccccc32)cc1`, the log partition coefficient (logP) amounted to 3.64.

`O=C(O)CCC(=O)Nc1ccc2c(c1)C(Nc1cccc(Br)c1)=NS2(=O)=O` returned a lipophilicity (logP) of 1.26.

In the case of `CCOC(=O)C(=CNc1ccc2c(c1)C(Nc1cccc(Br)c1)=NS2(=O)=O)C(=O)OCC`, the lipophilicity (logP) amounted to 2.48.

Take `CCOC(=O)C(=CNc1ccc2c(c1)C(Nc1ccc(Cl)cc1)=NS2(=O)=O)C(=O)OCC`: the logP was 2.39. The logP values of the last two compounds are within 0.2 log units of each other.

The values are drawn from ChEMBL document CHEMBL2331514, “Structure-based design and synthesis of novel pseudosaccharine derivatives as antiproliferative agents and kinase inhibitors” (Eur J Med Chem, 2013).
